The values below come from patent US20080119412A1, “Polypeptides for Modulating Binding of Trp Channel Proteins and Trp- Associated Proteins” (NoNO Inc., priority 2003, published 2008).

Common to all, as to assay: G3 assay titration, GST-PDZ fusion / biotinylated peptide
Holding throughout (format): binding

The target in one assay is T1, SITAC-18 d2 (Homo sapiens, UniProt Q9H190).
T1 construct: made in house; host or cells: E. coli (DH5alpha, BL21 or JM109)
T1 sequence (Q9H190 with tags, fused parts or gaps): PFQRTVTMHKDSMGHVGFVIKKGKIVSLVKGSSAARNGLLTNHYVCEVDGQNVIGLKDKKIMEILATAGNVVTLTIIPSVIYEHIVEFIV

For the next assay, the target named is T2, MAST2 d1 (Homo sapiens, UniProt Q6P0Q8).
T2 construct: made in house; host or cells: E. coli (DH5alpha, BL21 or JM109)
T2 sequence (Q6P0Q8 with tags, fused parts or gaps): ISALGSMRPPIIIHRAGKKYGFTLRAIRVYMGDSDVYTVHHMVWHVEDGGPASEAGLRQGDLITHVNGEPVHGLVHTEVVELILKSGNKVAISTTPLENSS

Another assay deals with T3, INADL d3 (Homo sapiens, UniProt Q8NI35).
T3 construct: made in house; host or cells: E. coli (DH5alpha, BL21 or JM109)
T3 sequence (Q8NI35 with tags, fused parts or gaps): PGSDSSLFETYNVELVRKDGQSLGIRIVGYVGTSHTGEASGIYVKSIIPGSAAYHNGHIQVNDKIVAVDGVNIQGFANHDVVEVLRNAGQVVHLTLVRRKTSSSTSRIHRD
Summed up: (§1)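 ELISA with anti-GST-captured GST-PDZ fusions (5 μg/ml), probed by biotinylated Tat-TRPM7 C-terminal peptide precomplexed 20 min with HRP-streptavidin. Binding ran 30 min at room temperature; TMB read at 450 nm. Peptide was titrated from 0.002 to 2 μM and data fitted to a binding equation.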

Another assay addresses T4, ZO-1 d2 (Homo sapiens, UniProt Q07157, DEL264-264).
T4 construct: made in house; host or cells: E. coli (DH5alpha, BL21 or JM109)
T4 sequence (Q07157 with tags, fused parts or gaps DEL264-264): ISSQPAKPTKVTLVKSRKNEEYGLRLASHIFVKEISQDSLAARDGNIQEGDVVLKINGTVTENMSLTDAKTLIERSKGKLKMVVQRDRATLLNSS
The procedure, abridged: as §1

In the next assay the target is T5, PAR3 d3 (Homo sapiens, UniProt Q8TEW0, R682S).
T5 construct: made in house; host or cells: E. coli (DH5alpha, BL21 or JM109)

The target of the next assay is T6, PAR3L d3 (Homo sapiens, UniProt Q8TEW8).
T6 construct: made in house; host or cells: E. coli (DH5alpha, BL21 or JM109)

The target of a further assay is T7, RIM2 d1 (Homo sapiens, UniProt Q9UQ26).
T7 construct: made in house; host or cells: E. coli (DH5alpha, BL21 or JM109)
T7 sequence (Q9UQ26 632-757): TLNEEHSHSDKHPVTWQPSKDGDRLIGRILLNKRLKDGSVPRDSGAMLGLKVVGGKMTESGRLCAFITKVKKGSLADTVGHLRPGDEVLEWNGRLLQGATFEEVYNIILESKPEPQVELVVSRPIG

pEC50: −log10 of the molar value. Residues, ends and D or L forms follow the SMILES beside them. *: point of attachment. Biotin = O=C1N[C@H]2[C@H](CS[C@H]2CCCCC(=O)*)N1

T6 sequence (Q8TEW8 with tags, fused parts or gaps): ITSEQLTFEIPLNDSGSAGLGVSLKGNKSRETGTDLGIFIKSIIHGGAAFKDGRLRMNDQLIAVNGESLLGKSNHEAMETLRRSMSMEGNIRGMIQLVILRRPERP
T5 sequence (Q8TEW0 with tags, fused parts or gaps R682S): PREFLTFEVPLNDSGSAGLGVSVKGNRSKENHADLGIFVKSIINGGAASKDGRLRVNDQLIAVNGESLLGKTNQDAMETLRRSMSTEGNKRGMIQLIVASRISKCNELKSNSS

Take `CSCC[C@H](NC(=O)[C@H](CC(C)C)NC(=O)[C@H](CCCNC(=N)N)NC(=O)[C@@H](NC(=O)[C@H](CO)NC(=O)[C@H](CC(N)=O)NC(=O)[C@@H](NC(=O)[C@H](CO)NC(=O)[C@H](CCCNC(=N)N)NC(=O)[C@H](CCCNC(=N)N)NC(=O)[C@H](CCCNC(=N)N)NC(=O)[C@H](CCC(N)=O)NC(=O)[C@H](CCCNC(=N)N)NC(=O)[C@H](CCCNC(=N)N)NC(=O)[C@H](CCCCN)NC(=O)[C@H](CCCCN)NC(=O)[C@H](CCCNC(=N)N)NC(=O)CNC(=O)[C@H](Cc1ccc(O)cc1)NC(=O)CCCC[C@@H]1SC[C@@H]2NC(=O)N[C@@H]21)[C@@H](C)O)C(C)C)C(=O)N[C@@H](CC(C)C)C(=O)O` [Tat-TRPM7 peptide] (Biotin-YGRKKRRQRRRSTNSVRLML-OH): the negative logarithm of the EC50 (pEC50) on SITAC-18 d2 is 7.05; on MAST2 d1, 6.96; on INADL d3, 6.92; at ZO-1 d2, 7.48; at PAR3 d3, 7.74; at PAR3L d3, 7.00. On RIM2 d1, the pEC50 was 7.33.

Broadly, the pEC50 is the EC50 on a negative log10 scale, so that one unit is a factor of ten. A low value points to a high EC50.
